The target in this assay is T1, α4β7 integrin interaction with MadCAM-1 (RPMI8866 cells) (Homo sapiens, UniProt P13612+P26010).
T1 construct: α4β7 integrin expressing cells; endogenous in cells; host or cells: RPMI8866 cells
T1 sequence (P13612 34-1032): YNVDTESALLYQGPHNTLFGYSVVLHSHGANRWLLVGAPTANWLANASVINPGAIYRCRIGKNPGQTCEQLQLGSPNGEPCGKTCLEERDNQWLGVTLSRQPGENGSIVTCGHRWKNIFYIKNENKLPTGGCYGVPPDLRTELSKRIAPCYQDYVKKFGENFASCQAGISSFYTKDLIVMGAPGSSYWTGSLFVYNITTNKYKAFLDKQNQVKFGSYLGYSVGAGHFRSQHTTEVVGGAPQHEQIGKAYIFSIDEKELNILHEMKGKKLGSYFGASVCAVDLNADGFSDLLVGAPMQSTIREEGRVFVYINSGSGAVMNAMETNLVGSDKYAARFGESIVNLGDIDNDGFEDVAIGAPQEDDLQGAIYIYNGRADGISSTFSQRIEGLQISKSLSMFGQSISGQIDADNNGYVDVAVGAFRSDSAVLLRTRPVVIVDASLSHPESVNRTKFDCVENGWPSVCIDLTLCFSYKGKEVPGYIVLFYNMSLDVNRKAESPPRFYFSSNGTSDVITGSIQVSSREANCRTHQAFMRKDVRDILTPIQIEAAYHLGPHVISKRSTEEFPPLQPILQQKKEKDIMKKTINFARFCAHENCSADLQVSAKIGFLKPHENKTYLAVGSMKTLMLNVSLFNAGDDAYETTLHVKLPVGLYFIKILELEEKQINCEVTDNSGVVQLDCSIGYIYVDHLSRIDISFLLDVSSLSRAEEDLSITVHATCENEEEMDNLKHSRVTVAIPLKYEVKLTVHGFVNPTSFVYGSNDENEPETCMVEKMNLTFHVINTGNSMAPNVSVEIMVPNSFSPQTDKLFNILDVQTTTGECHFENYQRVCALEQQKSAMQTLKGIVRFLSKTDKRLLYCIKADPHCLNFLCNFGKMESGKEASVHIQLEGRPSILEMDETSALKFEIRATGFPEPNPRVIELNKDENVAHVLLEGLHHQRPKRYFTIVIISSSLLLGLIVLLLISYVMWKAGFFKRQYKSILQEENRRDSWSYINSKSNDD
T1 sequence (P26010 20-798): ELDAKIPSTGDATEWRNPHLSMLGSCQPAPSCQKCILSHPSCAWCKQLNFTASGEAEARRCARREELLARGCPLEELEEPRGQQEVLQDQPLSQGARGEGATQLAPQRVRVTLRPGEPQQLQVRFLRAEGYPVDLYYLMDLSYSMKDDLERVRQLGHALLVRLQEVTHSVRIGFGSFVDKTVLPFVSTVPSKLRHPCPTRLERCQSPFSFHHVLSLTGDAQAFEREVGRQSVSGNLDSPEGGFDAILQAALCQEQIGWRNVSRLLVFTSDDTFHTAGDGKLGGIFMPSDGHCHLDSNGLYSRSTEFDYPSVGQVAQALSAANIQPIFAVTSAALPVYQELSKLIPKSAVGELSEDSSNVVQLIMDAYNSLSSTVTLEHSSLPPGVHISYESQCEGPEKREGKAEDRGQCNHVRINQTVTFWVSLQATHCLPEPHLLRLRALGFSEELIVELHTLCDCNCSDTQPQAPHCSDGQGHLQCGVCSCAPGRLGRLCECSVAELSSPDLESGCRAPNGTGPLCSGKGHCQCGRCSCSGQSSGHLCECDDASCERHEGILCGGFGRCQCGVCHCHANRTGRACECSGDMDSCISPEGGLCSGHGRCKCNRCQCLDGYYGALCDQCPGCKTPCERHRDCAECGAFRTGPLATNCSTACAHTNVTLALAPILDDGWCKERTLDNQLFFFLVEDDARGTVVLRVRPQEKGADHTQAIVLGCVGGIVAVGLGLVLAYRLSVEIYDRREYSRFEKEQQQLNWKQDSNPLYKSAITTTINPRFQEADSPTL
Kind of assay: α4β7 Integrin Cell Capture Assay. It is filed as cell-based. To be noted: capture of α4β7 integrin expressing RPMI8866 cells on recombinant MadCAM-1 extracellular domain-coated plate; 0.5 mM MnCl2. The method, boiled down: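 RPMI8866 cells (0.5×10^6 cells/mL in DMEM + 0.5% FBS + 0.5 mM MnCl2) preincubated with compound 1 h at 37 °C, then allowed to adhere 30 min at 37 °C to plates coated with MAdCAM-1 extracellular domain (1.0 μg/mL). Bound cells fixed with 2% glutaraldehyde, Hoechst-stained, imaged and counted; EC50 from cell count versus concentration.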
For orientation: EC50 means the concentration needed to bring the measured effect to its halfway point. On to `Cc1cc(C(F)(F)F)c(-c2ccc(C[C@H](NC(=O)c3c(F)cc(N4CCOC[C@@H]4C(F)(F)F)cc3F)C(=O)O)c3c2OCCC3)c(=O)n1C` (single isomer, unassigned) [Example 40], for which the EC50 is 0.889 nM.
The figure for `Cn1c(=O)c(-c2ccc(C[C@H](NC(=O)c3c(F)cc(N4CCOC[C@@H]4C(F)(F)F)cc3F)C(=O)O)c3c2OCCC3)cc2cnccc21` [Example 171] is 0.201 nM.
In the case of `Cc1cc(C(F)(F)F)c(-c2ccc(C[C@H](NC(=O)c3c(F)cc(N[C@H](C)C(F)(F)F)cc3F)C(=O)O)c3c2OCCC3)c(=O)n1C` (single isomer, unassigned) [Example 42], the EC50 stood at 1.42 nM.
The figure for `Cc1c(C)c(C)n(C)c(=O)c1-c1ccc(C[C@H](NC(=O)c2c(F)cc(N3CCOC[C@@H]3C(F)(F)F)cc2F)C(=O)O)c2c1OCCC2` [Example 154] is 0.358 nM; for `O=C(N[C@@H](Cc1ccc(-c2c(Cl)cc(F)cc2Cl)c2c1OCCO2)C(=O)O)c1c(F)cccc1F` [Example 4, (S)-3-(8-(2,6-dichloro-4-fluorophenyl)-2,3-dihydrobenzo[b][1,4]dioxin-5-yl)-2-(2,6-difluorobenzamido)propanoic acid] it is 26.3 nM; for `O=C(N[C@@H](Cc1ccc(-c2c(Cl)cc(F)cc2Cl)c2c1CCC2)C(=O)O)c1c(F)cccc1F` [Example 104, (S)-3-(7-(2,6-dichloro-4-fluorophenyl)-2,3-dihydro-1H-inden-4-yl)-2-(2,6-difluorobenzamido)propanoic acid] it is 88.7 nM.
On to `Cn1c(=O)c(-c2ccc(C[C@H](NC(=O)c3c(F)cc(N4CCOC[C@@H]4C(F)(F)F)cc3F)C(=O)O)c3c2COC3)cc2ccccc21` [Example 26, (S)-2-(2,6-difluoro-4-((R)-3-(trifluoromethyl)morpholino)benzamido)-3-(7-(1-methyl-2-oxo-1,2-dihydroquinolin-3-yl)-1,3-dihydroisobenzofuran-4-yl)propanoic acid], for which the EC50 is 1.04 nM.
The result for `Cc1c(-c2ccc(C[C@H](NC(=O)c3c(Cl)cccc3Cl)C(=O)O)c3c2OCCC3)c(=O)n(C)c2ccccc12` (single isomer, unassigned) [Example 62] reads 3.3 nM; that for `CC[C@@H](Nc1cc(F)c(C(=O)N[C@@H](Cc2ccc(-c3c(C(F)(F)F)cc(C)n(C)c3=O)c3c2CCCO3)C(=O)O)c(F)c1)C(F)(F)F` (single isomer, unassigned) [Example 44], 0.29 nM; that for `CC[C@@H](Nc1cc(F)c(C(=O)N[C@@H](Cc2ccc(-c3cc4ccccc4n(C)c3=O)c3c2CCCO3)C(=O)O)c(F)c1)C(F)(F)F` [Example 31, (S)-2-(2,6-difluoro-4-(((R)-1,1,1-trifluorobutan-2-yl)amino)benzamido)-3-(8-(1-methyl-2-oxo-1,2-dihydroquinolin-3-yl)chroman-5-yl)propanoic acid], 8.81 nM.
The result for `Cc1cc(C(F)(F)F)c(-c2ccc(C[C@H](NC(=O)c3c(F)cc(N4CCOC[C@@H]4C(F)(F)F)cc3F)C(=O)O)c3c2OCCC3)c(=O)n1C` (single isomer, unassigned) [Example 39] reads 0.126 nM; that for `O=C(N[C@@H](Cc1ccc(-c2c(Cl)cc(F)cc2Cl)c2c1CCCO2)C(=O)O)c1c(F)cccc1F` [Example 74, (S)-3-(8-(2,6-dichloro-4-fluorophenyl)chroman-5-yl)-2-(2,6-difluorobenzamido)propanoic acid], 79.7 nM; that for `O=C(N[C@@H](Cc1ccc(-c2ncc3ccccc3c2Br)c2c1CCCO2)C(=O)O)c1c(F)cccc1F` [Example 65, (S)-3-(8-(4-bromoisoquinolin-3-yl)chroman-5-yl)-2-(2,6-difluorobenzamido)propanoic acid], 19.6 nM.
Consider `Cc1c(-c2ccc(C[C@H](NC(=O)c3c(F)cc(N4CCOC[C@@H]4C(F)(F)F)cc3F)C(=O)O)c3c2COC3)c(=O)n(C)c(=O)n1C` [Example 14, (S)-2-(2,6-difluoro-4-((R)-3-(trifluoromethyl)morpholino)benzamido)-3-(7-(1,3,6-trimethyl-2,4-dioxo-1,2,3,4-tetrahydropyrimidin-5-yl)-1,3-dihydroisobenzofuran-4-yl) propanoic acid], for which the EC50 was determined as 0.38 nM.
The result for `Cc1cc(N2CCOC[C@@H]2C(F)(F)F)cc(F)c1C(=O)N[C@@H](Cc1ccc(-c2c(C)c(C(F)(F)F)cn(C)c2=O)c2c1CCC2)C(=O)O` [Example 196] reads 0.264 nM; that for `Cc1cccc(F)c1C(=O)N[C@@H](Cc1ccc(-c2c(Cl)cc(F)cc2Cl)c2c1OCCO2)C(=O)O` [Example 7, (S)-3-(8-(2,6-dichloro-4-fluorophenyl)-2,3-dihydrobenzo[b][1,4]dioxin-5-yl)-2-(2-fluoro-6-methylbenzamido)propanoic acid], 37.8 nM; that for `CCc1nc(-c2ccc(C[C@H](NC(=O)c3c(F)cc(N4CCOC[C@@H]4C(F)(F)F)cc3F)C(=O)O)c3c2OCCC3)c(=O)n(C)c1CC` [Example 164], 0.482 nM.
For `Cc1cc(C(F)(F)F)c(-c2ccc(C[C@H](NC(=O)c3c(F)cc(N4CCOC[C@@H]4C(F)(F)F)cc3F)C(=O)O)c3c2CCC3)c(=O)n1C` [Example 202], the EC50 is 0.144 nM.
The figure for `Cc1nc(-c2ccc(C[C@H](NC(=O)c3c(F)cc(N4CCC(F)(F)C[C@H]4C(F)(F)F)cc3F)C(=O)O)c3c2OCCC3)c(=O)n(C)c1C` [Example 143] is 4.72 nM.
The figure for `Cc1cc(N2CCC2)c(-c2ccc(C[C@H](NC(=O)c3c(F)cc(N4CCOC[C@@H]4C(F)(F)F)cc3F)C(=O)O)c3c2OCCC3)c(=O)n1C` (atropisomer, axis not shown) [Example 152] is 0.791 nM; for `Cc1cc(C(F)(F)F)c(-c2ccc(C[C@H](NC(=O)c3c(F)cc(N[C@H](C)C(F)(F)F)cc3F)C(=O)O)c3c2COC3)c(=O)n1C` [Example 20, (S)-2-(2,6-difluoro-4-(((R)-1,1,1-trifluoropropan-2-yl)amino)benzamido)-3-(7-(1,6-dimethyl-2-oxo-4-(trifluoromethyl)-1,2-dihydropyridin-3-yl)-1,3-dihydroisobenzofuran-4-yl)propanoic acid] it is 0.242 nM.
Turning to `Cc1cc(C)n(C)c(=O)c1-c1ccc(C[C@H](NC(=O)c2c(F)cc(N3CCOC[C@@H]3C(F)(F)F)cc2F)C(=O)O)c2c1CCC2` [Example 195], the half-maximal effective concentration (EC50) is 0.198 nM.
Turning to `Cc1cn(C)c(=O)c(-c2ccc(C[C@H](NC(=O)c3c(C)cc(N4CCOC[C@@H]4C(F)(F)F)cc3F)C(=O)O)c3c2OCCC3)n1` [Example 163], the EC50 was 0.731 nM.
The figure for `O=C(N[C@@H](Cc1ccc(-c2c(Cl)cc(F)cc2Cl)c2c1[C@@H]1C[C@@H]1CO2)C(=O)O)c1c(F)cccc1F` (single isomer, unassigned) [Example 79] is 33.1 nM.
The figure for `Cn1c(=O)c(-c2ccc(C[C@H](NC(=O)c3c(Cl)cccc3Cl)C(=O)O)c3c2OC(C)(C)C3)cc2ccccc21` [Example 38, (S)-2-(2,6-dichlorobenzamido)-3-(2,2-dimethyl-7-(1-methyl-2-oxo-1,2-dihydroquinolin-3-yl)-2,3-dihydrobenzofuran-4-yl)propanoic acid] is 20.6 nM.
